Measured values from article PMC11277489, “Novel Piperazine Derivatives of Vindoline as Anticancer Agents” (International Journal of Molecular Sciences, 2024).
Like-named read-outs stand apart in the source and are kept apart here.

How the values were obtained:
Type in all cases: cell-based
CCRF-CEM = experiment: NCI60 five-dose screen, Leukemia; settings: Homo sapiens, Leukemia, five-dose screen, read-out: GI50
MDA-MB-468 = experiment: NCI60 five-dose screen, Breast Cancer; settings: Homo sapiens; MDA-MB-468, Breast Cancer; five-dose screen; read-out: GI50
UO-31 = experiment: NCI60 five-dose screen, Renal Cancer; settings: Homo sapiens; UO-31, Renal Cancer; five-dose screen; read-out: GI50
MCF7 = experiment: NCI60 five-dose screen, Breast Cancer; settings: Homo sapiens; MCF7, Breast Cancer; five-dose screen; read-out: GI50
OVCAR-5 = experiment: NCI60 five-dose screen, Ovarian Cancer; settings: Homo sapiens; OVCAR-5, Ovarian Cancer; five-dose screen; read-out: GI50
IGROV1 = experiment: NCI60 five-dose screen, Ovarian Cancer; settings: Homo sapiens, IGROV-1; IGROV1, Ovarian Cancer; five-dose screen; read-out: GI50
RXF 393 = experiment: NCI60 five-dose screen, Renal Cancer; settings: Homo sapiens, RXF 393, Renal Cancer
NCI-H322M = experiment: NCI60 five-dose screen, Non-small Cell Lung Cancer; settings: Homo sapiens, Non-small Cell Lung Cancer, five-dose screen, read-out: GI50
TK-10 = experiment: NCI60 five-dose screen, Renal Cancer; settings: Homo sapiens; TK-10, Renal Cancer; five-dose screen; read-out: GI50
MDA-MB-435 = experiment: NCI60 five-dose screen, Melanoma; settings: Homo sapiens; MDA-MB-435, Melanoma; five-dose screen; read-out: GI50
OVCAR-8 = experiment: NCI60 five-dose screen, Ovarian Cancer; settings: Homo sapiens; OVCAR-8, Ovarian Cancer; five-dose screen; read-out: GI50
DU-145 = experiment: NCI60 five-dose screen, Prostate Cancer; settings: Homo sapiens; DU-145, Prostate Cancer; five-dose screen; read-out: GI50
SF-295 = experiment: NCI60 five-dose screen, CNS Cancer; settings: Homo sapiens; SF-295, CNS Cancer; five-dose screen; read-out: GI50
SK-MEL-28 = experiment: NCI60 five-dose screen, Melanoma; settings: Homo sapiens; SK-MEL-28, Melanoma; five-dose screen; read-out: GI50
HT29 = experiment: NCI60 five-dose screen, Colon Cancer; settings: Homo sapiens, HT-29; HT29, Colon Cancer; five-dose screen; read-out: GI50
SR = experiment: NCI60 five-dose screen, Leukemia; settings: Homo sapiens, Leukemia, five-dose screen, read-out: GI50
SNB-19 = experiment: NCI60 five-dose screen, CNS Cancer; settings: Homo sapiens; SNB-19, CNS Cancer; five-dose screen; read-out: GI50
SN12C = experiment: NCI60 five-dose screen, Renal Cancer; settings: Homo sapiens, Renal Cancer, five-dose screen, read-out: GI50
HOP-92 = experiment: NCI60 five-dose screen, Non-small Cell Lung Cancer; settings: Homo sapiens; HOP-92, Non-small Cell Lung Cancer; five-dose screen; read-out: GI50
786–0 = experiment: NCI60 five-dose screen, Renal Cancer; settings: Homo sapiens; 786–0, Renal Cancer; five-dose screen; read-out: GI50
[1] = test system: 60 human tumor cell lines (NCI60); experiment: NCI60 five-dose screen, whole panel and sub-panel means; settings: read-out: GI50 Mean
CAKI-1 = experiment: NCI60 five-dose screen, Renal Cancer; settings: Homo sapiens; CAKI-1, Renal Cancer; five-dose screen; read-out: GI50
MALME-3M = experiment: NCI60 five-dose screen, Melanoma; settings: Homo sapiens; MALME-3M, Melanoma; five-dose screen; read-out: GI50
HCT-116 = experiment: NCI60 five-dose screen, Colon Cancer; settings: Homo sapiens; HCT-116, Colon Cancer; five-dose screen; read-out: GI50
M14 = experiment: NCI60 five-dose screen, Melanoma; settings: Homo sapiens; M14, Melanoma; five-dose screen; read-out: GI50
HS 578T = experiment: NCI60 five-dose screen, Breast Cancer; settings: Homo sapiens; HS 578T, Breast Cancer; five-dose screen; read-out: GI50
MDA-MB231ATCC = experiment: NCI60 five-dose screen, Breast Cancer; settings: Homo sapiens, MDA-MB-231; MDA-MB231ATCC, Breast Cancer; five-dose screen; read-out: GI50
COLO 205 = experiment: NCI60 five-dose screen, Colon Cancer; settings: Homo sapiens; COLO 205, Colon Cancer; five-dose screen; read-out: GI50
SK-OV-3 = experiment: NCI60 five-dose screen, Ovarian Cancer; settings: Homo sapiens; SK-OV-3, Ovarian Cancer; five-dose screen; read-out: GI50
HCC-2998 = experiment: NCI60 five-dose screen, Colon Cancer; settings: Homo sapiens; HCC-2998, Colon Cancer; five-dose screen; read-out: GI50
MOLT-4 = experiment: NCI60 five-dose screen, Leukemia; settings: Homo sapiens; MOLT-4, Leukemia; five-dose screen; read-out: GI50
RPMI-8226 = experiment: NCI60 five-dose screen, Leukemia; settings: Homo sapiens; RPMI-8226, Leukemia; five-dose screen; read-out: GI50
KM12 = experiment: NCI60 five-dose screen, Colon Cancer; settings: Homo sapiens; KM12, Colon Cancer; five-dose screen; read-out: GI50
EKVX = experiment: NCI60 five-dose screen, Non-small Cell Lung Cancer; settings: Homo sapiens, Non-small Cell Lung Cancer, five-dose screen, read-out: GI50
UACC-62 = experiment: NCI60 five-dose screen, Melanoma; settings: Homo sapiens; UACC-62, Melanoma; five-dose screen; read-out: GI50
[2] = Homo sapiens, 60 cell, mean over all 60 cell lines
[3] = Homo sapiens, mean over Breast Cancer panel
[4] = Homo sapiens, mean over CNS Cancer panel
[5] = Homo sapiens, mean over Colon Cancer panel
[6] = Homo sapiens, mean over Leukemia panel
[7] = Homo sapiens, mean over Melanoma panel
[8] = Homo sapiens, mean over Non-small Cell Lung Cancer panel
[9] = Homo sapiens, mean over Ovarian Cancer panel
[10] = Homo sapiens, mean over Prostate Cancer panel
[11] = Homo sapiens, mean over Renal Cancer panel

CC[C@]12C=CCN3CC[C@@]4(c5ccc(OC)cc5N(C)[C@H]4[C@@](O)(C(=O)OC)[C@@H]1OC(=O)CCCN1CCN(c4ccc(C(F)(F)F)cc4)CC1)[C@@H]32 [Compound 22]
GI50 (CCRF-CEM): 1860 nM
GI50 (MDA-MB-468): 1380 nM
GI50 (UO-31): 1860 nM
GI50 (MCF7): 2000 nM
GI50 (OVCAR-5): 4070 nM
GI50 (IGROV1): 2000 nM
GI50 (RXF 393): 1550 nM
GI50 (NCI-H322M): 3720 nM
GI50 (TK-10): 2880 nM
GI50 (MDA-MB-435): 1700 nM
GI50 (OVCAR-8): 3020 nM
GI50 (DU-145): 2880 nM
GI50 (SF-295): 1950 nM
GI50 (SK-MEL-28): 1950 nM
GI50 (HT29): 1740 nM
GI50 (SR): 1700 nM
GI50 (SNB-19): 3550 nM
GI50 (SN12C): 2630 nM
GI50 (HOP-92): 1950 nM
GI50 (786–0): 2570 nM
GI50 [1, 2]: < 4000 nM
GI50 [1, 3]: 2510 nM
GI50 [1, 4]: 2470 nM
GI50 [1, 5]: 2020 nM
GI50 [1, 6]: 1770 nM
GI50 [1, 7]: 1980 nM
GI50 [1, 8]: 2880 nM
GI50 [1, 9]: 3050 nM
GI50 [1, 10]: 2670 nM
GI50 [1, 11]: 2590 nM
GI50 ([1]; mean over all 60 cell lines): 2440 nM
GI50 (CAKI-1): 2240 nM
GI50 (MALME-3M): 1580 nM
GI50 (HCT-116): 1910 nM
GI50 (M14): 1860 nM
GI50 (HS 578T): 2820 nM
GI50 (MDA-MB231ATCC): 2820 nM
GI50 (COLO 205): 1780 nM
GI50 (SK-OV-3): 3720 nM
GI50 (HCC-2998): 1820 nM
GI50 (MOLT-4): 1950 nM
GI50 (RPMI-8226): 2040 nM
GI50 (KM12): 2140 nM
GI50 (EKVX): 3090 nM
GI50 (UACC-62): 3310 nM

CCC12C=CCN3CCC4(c5cc(NC(=O)CN6CCN(C(c7ccc(F)cc7)c7ccc(F)cc7)CC6)c(OC)cc5N(C)C4C(O)(C(=O)OC)C1OC(C)=O)C32 (centres unmarked) [Compound 20]
GI50 (CCRF-CEM): 2880 nM
GI50 (MDA-MB-468): 3020 nM
GI50 (UO-31): 5250 nM
GI50 (MCF7): 2950 nM
GI50 (OVCAR-5): 3550 nM
GI50 (IGROV1): 7940 nM
GI50 (RXF 393): 2690 nM
GI50 (NCI-H322M): 12000 nM
GI50 (TK-10): 7590 nM
GI50 (MDA-MB-435): 3890 nM
GI50 (OVCAR-8): 7590 nM
GI50 (DU-145): 6310 nM
GI50 (SF-295): 3470 nM
GI50 (SK-MEL-28): 12300 nM
GI50 (HT29): 2880 nM
GI50 (SR): 2000 nM
GI50 (SNB-19): 5890 nM
GI50 (SN12C): 4900 nM
GI50 (HOP-92): 5010 nM
GI50 (786–0): 7760 nM
GI50 [1, 2]: 6270 nM
GI50 [1, 3]: 4520 nM
GI50 [1, 4]: 4400 nM
GI50 [1, 5]: 3400 nM
GI50 [1, 6]: 2380 nM
GI50 [1, 7]: 5600 nM
GI50 [1, 8]: 15700 nM
GI50 [1, 9]: 5300 nM
GI50 [1, 10]: 5390 nM
GI50 [1, 11]: 5230 nM
GI50 (CAKI-1): 3160 nM
GI50 (MALME-3M): 8130 nM
GI50 (HCT-116): 3090 nM
GI50 (M14): 4070 nM
GI50 (HS 578T): 5890 nM
GI50 (MDA-MB231ATCC): 9120 nM
GI50 (COLO 205): 2450 nM
GI50 (SK-OV-3): 5890 nM
GI50 (HCC-2998): 3890 nM
GI50 (MOLT-4): 2140 nM
GI50 (RPMI-8226): 1910 nM
GI50 (KM12): 3980 nM
GI50 (EKVX): 4070 nM
GI50 (UACC-62): 8130 nM
